Results: PubChem BioAssay AID190 (DTP/NCI, 2004)
“And” between values parts separate entries of the source, which are not always exact repeats. Equal entries are not always repeated. Inconclusive results and toxic doses are left out. Rule for the calls: active = survival T/C of 150% or more; inactive = T/C below 125% in these data.

Tested on: AKR/Lw mice, AKR lymphoma ip, median survival T/C
Assay: NCI In Vivo Anticancer Drug Screen. Data for tumor model Lymphoma AKR (Transplanted) (intraperitoneal) in AKR/Lw mice
Conditions: endpoint: median survival time, higher = longer survival
Method: The antitumor activity of compounds was measured in mice bearing transplantable tumors. Survival or tumor size were measured and the results are expressed as the measurement made in the treated group (T) divided by the measurement made in the vehicle treated control group (C). The tumor model used in this assay is Lymphoma AKR (Transplanted) (intraperitoneal) in AKR/Lw mice

[1] = dose: 25.0 mg/kg/injection, schedule: Q04DX003 (ip), vehicle: saline
[2] = dose: 50.0 mg/kg/injection, schedule: Q04DX003 (ip), vehicle: saline
[3] = dose: 100.0 mg/kg/injection, schedule: Q01DX001 (ip), vehicle: saline
[4] = dose: 100.0 mg/kg/injection, schedule: Q04DX003 (ip), vehicle: saline
[5] = dose: 200.0 mg/kg/injection, schedule: Q01DX001 (ip), vehicle: saline
[6] = dose: 100.0 mg/kg/injection, schedule: Q01DX001 (ip), vehicle: Klucel (hydroxypropylcellulose) (HPC)
[7] = dose: 200.0 mg/kg/injection, schedule: Q01DX001 (ip), vehicle: Klucel (hydroxypropylcellulose) (HPC)
[8] = dose: 400.0 mg/kg/injection, schedule: Q01DX001 (ip), vehicle: Klucel (hydroxypropylcellulose) (HPC)
[9] = dose: 400.0 mg/kg/injection, schedule: Q01DX001 (ip), vehicle: saline
[10] = dose: 12.5 mg/kg/injection, schedule: Q01DX001 (ip), vehicle: saline

Measured: T/C

NC(=O)C(Br)CBr (stereo unspecified)
inactive: [1] 100 % of control | [2] 122 % of control | [3] 108 % of control | [4] 89 % of control | [5] 101 % of control

C1CC2C(CCCC23OCCO3)C2(C1)OCCO2 (stereo unspecified)
inactive: [6] 103 % of control | [3] 106 % of control | [7] 96 % of control | [5] 106 % of control | [8] 93 % of control | [9] 113 % of control

CCCCC(C(=O)OCC)C(CCC1CCCCC1)(C(=O)OCC)C(=O)OCC (stereo unspecified)
inactive: [6] 110 % of control | [7] 104 % of control

C[C@@H]1C[C@H]2[C@@H]3CCC4=CC(=O)C=C[C@]4(C)[C@@]3(F)[C@@H](O)C[C@]2(C)[C@@]1(O)C(=O)CO
inactive: dose: 0.25 mg/kg/injection, schedule: Q01DX004 (sc), vehicle: saline 121 % of control | dose: 0.5 mg/kg/injection, schedule: Q01DX004 (sc), vehicle: saline 103 % of control and 110 % of control | dose: 1.0 mg/kg/injection, schedule: Q01DX004 (sc), vehicle: saline 103 % of control and 121 % of control | dose: 1.8 mg/kg/injection, schedule: Q01DX004 (sc), vehicle: saline 89 % of control | dose: 2.6 mg/kg/injection, schedule: Q01DX004 (sc), vehicle: saline 103 % of control | dose: 4.0 mg/kg/injection, schedule: Q01DX004 (sc), vehicle: saline 103 % of control | dose: 4.5 mg/kg/injection, schedule: Q01DX004 (sc), vehicle: saline 96 % of control

OCC1(O)CC(O)C(O)(CO)CC1O (stereo unspecified)
inactive: [3] 97 % of control | [5] 116 % of control | [9] 104 % of control

COC(=O)C(COS(=O)(=O)c1ccccc1)NC(=O)OCc1ccccc1 (stereo unspecified)
inactive: [3] 94 % of control | [5] 97 % of control | [9] 102 % of control

CC[C@H]1CN2CCc3cc(OC)c(OC)cc3[C@@H]2C[C@@H]1C[C@H]1NCCc2cc(OC)c(OC)cc21
inactive: dose: 0.5 mg/kg/injection, schedule: Q01DX009 (ip), vehicle: saline 100 % of control | dose: 0.75 mg/kg/injection, schedule: Q04DX003 (ip), vehicle: saline 87 % of control | dose: 1.0 mg/kg/injection, schedule: Q01DX009 (ip), vehicle: saline 96 % of control and 107 % of control | dose: 1.25 mg/kg/injection, schedule: Q01DX009 (ip), vehicle: saline 102 % of control | dose: 1.5 mg/kg/injection, schedule: Q04DX003 (ip), vehicle: saline 87 % of control | dose: 2.0 mg/kg/injection, schedule: Q01DX009 (ip), vehicle: saline 96 % of control | dose: 2.5 mg/kg/injection, schedule: Q01DX009 (ip), vehicle: saline with Tween-80 100 % of control | dose: 3.0 mg/kg/injection, schedule: Q01DX001 (ip), vehicle: saline 95 % of control | dose: 3.0 mg/kg/injection, schedule: Q04DX003 (ip), vehicle: saline 97 % of control | dose: 5.0 mg/kg/injection, schedule: Q01DX009 (ip), vehicle: saline with Tween-80 122 % of control | dose: 5.0 mg/kg/injection, schedule: Q04DX003 (ip), vehicle: saline 95 % of control | dose: 6.0 mg/kg/injection, schedule: Q01DX001 (ip), vehicle: saline 111 % of control | dose: 6.0 mg/kg/injection, schedule: Q04DX003 (ip), vehicle: saline 96 % of control and 118 % of control | dose: 6.2 mg/kg/injection, schedule: Q01DX001 (ip), vehicle: saline 105 % of control | dose: 6.2 mg/kg/injection, schedule: Q04DX003 (ip), vehicle: saline 96 % of control and 100 % of control and 124 % of control | dose: 6.25 mg/kg/injection, schedule: Q04DX003 (ip), vehicle: saline 116 % of control and 117 % of control | dose: 7.5 mg/kg/injection, schedule: Q01DX001 (ip), vehicle: saline 111 % of control | dose: 10.0 mg/kg/injection, schedule: Q01DX009 (ip), vehicle: saline with Tween-80 106 % of control | dose: 12.0 mg/kg/injection, schedule: Q01DX001 (ip), vehicle: saline 115 % of control | [10] 103 % of control and 113 % of control | dose: 15.0 mg/kg/injection, schedule: Q01DX001 (ip), vehicle: saline 117 % of control

O=C(Nc1cccc(Cl)c1)Oc1ccc2ccccc2c1
inactive: dose: 100.0 mg/kg/injection, schedule: Q01DX001 (ip), vehicle: saline with Tween-80 100 % of control | dose: 100.0 mg/kg/injection, schedule: Q01DX009 (ip), vehicle: saline 92 % of control | dose: 200.0 mg/kg/injection, schedule: Q01DX001 (ip), vehicle: saline with Tween-80 100 % of control | dose: 200.0 mg/kg/injection, schedule: Q01DX009 (ip), vehicle: saline 112 % of control | dose: 400.0 mg/kg/injection, schedule: Q01DX001 (ip), vehicle: saline with Tween-80 105 % of control | dose: 400.0 mg/kg/injection, schedule: Q04DX003 (ip), vehicle: saline 93 % of control

ClC1=C(Cl)C2(Cl)C3COCC3C1(Cl)C2(Cl)Cl (stereo unspecified)
inactive: [6] 100 % of control | [7] 93 % of control | [8] 91 % of control

CC[C@](O)(C(=O)O)c1cc2n(c(=O)c1CO)Cc1cc3ccccc3nc1-2
inactive: dose: 0.02 mg/kg/injection, schedule: Q01DX009 (ip), vehicle: saline 94 % of control | dose: 0.05 mg/kg/injection, schedule: Q01DX009 (ip), vehicle: saline 105 % of control | dose: 0.06 mg/kg/injection, schedule: Q01DX009 (ip), vehicle: saline 106 % of control | dose: 0.1 mg/kg/injection, schedule: Q01DX009 (ip), vehicle: saline 100 % of control and 103 % of control | dose: 0.12 mg/kg/injection, schedule: Q01DX009 (ip), vehicle: saline 100 % of control and 114 % of control | dose: 0.15 mg/kg/injection, schedule: Q01DX009 (ip), vehicle: saline 106 % of control | dose: 0.35 mg/kg/injection, schedule: Q01DX009 (ip), vehicle: saline 106 % of control | dose: 0.37 mg/kg/injection, schedule: Q01DX009 (ip), vehicle: saline 101 % of control | dose: 0.4 mg/kg/injection, schedule: Q01DX009 (ip), vehicle: saline 118 % of control | dose: 0.6 mg/kg/injection, schedule: Q01DX009 (ip), vehicle: saline 96 % of control | dose: 0.6 mg/kg/injection, schedule: Q04DX003 (ip), vehicle: saline 88 % of control | dose: 0.75 mg/kg/injection, schedule: Q01DX009 (ip), vehicle: saline 117 % of control | dose: 1.2 mg/kg/injection, schedule: Q04DX003 (ip), vehicle: saline 97 % of control and 104 % of control | dose: 1.25 mg/kg/injection, schedule: Q01DX001 (ip), vehicle: saline 121 % of control | dose: 2.5 mg/kg/injection, schedule: Q01DX001 (ip), vehicle: saline 107 % of control | dose: 2.5 mg/kg/injection, schedule: Q01DX009 (ip), vehicle: saline 88 % of control and 113 % of control | dose: 3.7 mg/kg/injection, schedule: Q04DX003 (ip), vehicle: saline 106 % of control | dose: 5.0 mg/kg/injection, schedule: Q01DX001 (ip), vehicle: saline 102 % of control and 114 % of control | dose: 7.5 mg/kg/injection, schedule: Q04DX003 (ip), vehicle: saline 112 % of control | [10] 120 % of control | dose: 18.0 mg/kg/injection, schedule: Q01DX001 (ip), vehicle: saline 95 % of control | dose: 30.0 mg/kg/injection, schedule: Q04DX003 (ip), vehicle: saline 103 % of control and 115 % of control | dose: 40.0 mg/kg/injection, schedule: Q01DX001 (ip), vehicle: saline 113 % of control | dose: 80.0 mg/kg/injection, schedule: Q01DX001 (ip), vehicle: saline 97 % of control
active: dose: 15.0 mg/kg/injection, schedule: Q04DX003 (ip), vehicle: saline 150 % of control

O=C(O)C12CCC(CC1)C2
inactive: [1] 110 % of control | [2] 102 % of control | [3] 103 % of control | [4] 100 % of control | [5] 105 % of control | [9] 105 % of control

CCOC(=O)CCCSCCCC(=O)OCC
inactive: [5] 89 % of control | [9] 95 % of control

O=C(c1ccccc1)C1CCC1
inactive: [6] 95 % of control | [7] 95 % of control
